This experiment has as its target human PDE10A2 (Homo sapiens (Human), UniProt Q9Y233). The experiment in a line: PDE10 fluorescence polarization (IMAP FP) inhibition assay. The format is biochemical. Particulars: human PDE10A2 from transfected AD293 cells; FAM-labeled cAMP 50 nM; apparent inhibition constant; read-out: PDE10A Ki. The method, boiled down: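 Cytoplasmic lysate of AD293 cells transiently expressing human PDE10A2 (enzyme level giving 20% conversion) incubated with 50 nM FAM-cAMP in pH 7.2 Tris/MgCl2 buffer, 30 min at room temperature. IMAP binding solution added, FP read after ≥1 h; 10-point 3-fold compound titrations fitted to a four-parameter equation.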
(Fluorescence polarisation rises when a labelled molecule tumbles more slowly, as on binding a larger partner.)
human PDE10A2, sequence (Q9Y233 267-1055): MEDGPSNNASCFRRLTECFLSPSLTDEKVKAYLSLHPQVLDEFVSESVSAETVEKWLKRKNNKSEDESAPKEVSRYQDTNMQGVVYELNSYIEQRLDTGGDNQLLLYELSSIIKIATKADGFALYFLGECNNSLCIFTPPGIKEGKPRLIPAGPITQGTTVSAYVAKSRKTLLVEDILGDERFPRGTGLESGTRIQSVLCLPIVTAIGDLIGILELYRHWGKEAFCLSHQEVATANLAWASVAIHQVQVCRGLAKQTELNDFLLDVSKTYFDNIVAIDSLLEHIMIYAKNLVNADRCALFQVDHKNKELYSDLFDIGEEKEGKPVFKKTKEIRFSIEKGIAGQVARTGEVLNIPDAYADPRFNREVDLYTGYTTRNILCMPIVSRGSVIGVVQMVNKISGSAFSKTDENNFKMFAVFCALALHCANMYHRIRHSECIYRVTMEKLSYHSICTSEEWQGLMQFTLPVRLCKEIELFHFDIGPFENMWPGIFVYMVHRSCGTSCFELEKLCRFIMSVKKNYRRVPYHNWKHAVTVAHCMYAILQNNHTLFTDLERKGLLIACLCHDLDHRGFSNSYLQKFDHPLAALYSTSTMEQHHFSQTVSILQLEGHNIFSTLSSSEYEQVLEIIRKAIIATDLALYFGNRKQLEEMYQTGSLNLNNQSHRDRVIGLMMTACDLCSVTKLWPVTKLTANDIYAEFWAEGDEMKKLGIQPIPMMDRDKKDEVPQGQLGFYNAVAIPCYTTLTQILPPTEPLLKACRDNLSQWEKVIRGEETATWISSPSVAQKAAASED
In the case of `COc1ccc([C@H]2C[C@@H]2COc2nc(C)ncc2-c2cn(C)[nH]c2=O)nc1` [Example 244, 4-(4-(((1S,2S)-2-(5-methoxypyridin-2-yl)cyclopropyl)methoxy)-2-methylpyrimidin-5-yl)-1-methyl-1,2-dihydropyrazol-3-one], the Ki was found to be 0.71 nM.
With `COc1ccc([C@H]2C[C@@H]2COc2nc(C)ncc2-c2c[nH]nn2)nc1` [Example 245, 4-(((1S,2S)-2-(5-methoxypyridin-2-yl)cyclopropyl)methoxy)-2-methyl-5-(1H-1,2,3-triazol-4-yl)pyrimidine], the Ki was 1.36 nM.
For `COc1ccc([C@H]2C[C@@H]2COc2nc(C)ncc2-c2cnnn2C(F)F)nc1` [Example 246, 5-(3-(difluoromethyl)-3H-1,2,3-triazol-4-yl)-4-(((1S,2S)-2-(5-methoxypyridin-2-yl)cyclopropyl)methoxy)-2-methylpyrimidine], the Ki came to 6.6 nM.
Under `CCn1cc(-c2cnc(C)nc2OC[C@H]2C[C@@H]2c2ccc(OC)cn2)nn1` [Example 247, 5-(1-ethyl-1H-1,2,3-triazol-4-yl)-4-(((1S,2S)-2-(5-methoxypyridin-2-yl)cyclopropyl)methoxy)-2-methylpyrimidine] stands 2.43 nM; under `CCOC(=O)c1[nH]nnc1-c1cnc(C)nc1OC[C@H]1C[C@@H]1c1ccc(OC)cn1` [Example 248, ethyl 4-(4-(((1S,2S)-2-(5-methoxypyridin-2-yl)cyclopropyl)methoxy)-2-methylpyrimidin-5-yl)-1H-1,2,3-triazole-5-carboxylate], 14 nM.
Under `COc1ccc([C@H]2C[C@@H]2COc2nc(C)ncc2-c2nn[nH]c2CO)nc1` [Example 249, (4-(4-(((1S,2S)-2-(5-methoxypyridin-2-yl)cyclopropyl)methoxy)-2-methylpyrimidin-5-yl)-1H-1,2,3-triazol-5-yl)methanol] stands 15.7 nM; under `COc1ccc([C@H]2C[C@@H]2COc2nc(C)ncc2-c2ccc(-c3ncon3)cc2)nc1` [Example 250, 3-(4-(4-(((1S,2S)-2-(5-methoxypyridin-2-yl)cyclopropyl)methoxy)-2-methylpyrimidin-5-yl)phenyl)-1,2,4-oxadiazole], 1.16 nM; under `COc1ccc([C@H]2C[C@@H]2COc2nc(C)ncc2-c2ccc(-c3noc(C)n3)cc2)nc1` [Example 251, 3-(4-(4-(((1S,2S)-2-(5-methoxypyridin-2-yl)cyclopropyl)methoxy)-2-methylpyrimidin-5-yl)phenyl)-5-methyl-1,2,4-oxadiazole], 1.97 nM.
Take `COc1ccc([C@H]2C[C@@H]2COc2nc(C)ncc2-c2ccc(-c3noc(CO)n3)cc2)nc1` [Example 252, (3-(4-(4-(((1S,2S)-2-(5-methoxypyridin-2-yl)cyclopropyl)methoxy)-2-methylpyrimidin-5-yl)phenyl)-1,2,4-oxadiazol-5-yl)methanol]: the Ki is 2.03 nM.
Regarding `COc1ccc([C@H]2C[C@@H]2COc2nc(C)ncc2-c2ccc(-c3nc(C)no3)cc2)nc1` [Example 253, 5-(4-(4-(((1S,2S)-2-(5-methoxypyridin-2-yl)cyclopropyl)methoxy)-2-methylpyrimidin-5-yl)phenyl)-3-methyl-1,2,4-oxadiazole], the Ki came to 3.02 nM.
Under `COc1ccc([C@H]2C[C@@H]2COc2nc(C)ncc2-c2ncno2)nc1` [Example 254, 5-(4-(((1S,2S)-2-(5-methoxypyridin-2-yl)cyclopropyl)methoxy)-2-methylpyrimidin-5-yl)-1,2,4-oxadiazole] stands 22.9 nM; under `COc1ccc([C@H]2C[C@@H]2COc2nc(C)ncc2-c2cnco2)nc1` [Example 255, 5-(4-(((1S,2S)-2-(5-methoxypyridin-2-yl)cyclopropyl)methoxy)-2-methylpyrimidin-5-yl)oxazole], 7.7 nM.
Under `COc1ccc([C@H]2C[C@@H]2COc2nc(C)ncc2-c2noc(CO)n2)nc1` [Example 256, (3-(4-(((1S,2S)-2-(5-methoxypyridin-2-yl)cyclopropyl)methoxy)-2-methylpyrimidin-5-yl)-1,2,4-oxadiazol-5-yl)methanol] stands 29.9 nM; under `COc1ccc([C@H]2C[C@@H]2COc2nc(C)ncc2-c2ocnc2C)nc1` [Example 257, 5-(4-(((1S,2S)-2-(5-methoxypyridin-2-yl)cyclopropyl)methoxy)-2-methylpyrimidin-5-yl)-4-methyloxazole], 0.91 nM.

The values are drawn from US9663513B2, “Pyrimidine PDE10 inhibitors” (Merck Sharp & Dohme Corp., priority 2012, dated 2017).
